Like-named read-outs stand apart in the source and are kept apart here.
Legend:
[1] = target: T1, NaV1.8 (Homo sapiens, UniProt Q9Y5Y9); details: read-out: TTX IC50; cited from earlier work
[2] = in vivo; cited from earlier work
[3] = target: T1, NaV1.8; experiment: Activity against NaV 1.8 channel (Table 4); type: cell-based
Experimental: Compounds of the invention are useful as antagonists of voltage-gated sodium ion channels. Antagonist properties of test compounds were assessed as follows. Cells expressing the NaV of interest were placed into microtiter plates. After an incubation period, the cells were stained with fluorescent dyes sensitive to the transmembrane potential. The test compounds were added to the microtiter plate. The cells were stimulated with either a chemical or electrical means to evoke a NaV dependent membrane potential change from unblocked channels, which was detected and measured with trans-membrane potential-sensitive dyes. Antagonists were detected as a decreased membrane potential response to the stimulus. The optical membrane potential assay utilized voltage-sensitive FRET sensors described by Gonzalez and Tsien (See, Gonzalez, J. E. and R. Y. Tsien (1995) “Voltage sensing by fluorescence resonance energy transfer in single cells” Biophys J 69(4): 1272-80, and Gonzalez, J. E. and R. Y. Tsien (1997) “Improved indicators of cell membrane potential that use fluorescence resonance energy transfer” Chem Biol 4(4): 269-77) in combination with instrumentation for measuring fluorescence changes such as the Voltage/Ion Probe Reader (VIPR®) (See, Gonzalez, J. E., K. Oades, et al. (1999) “Cell-based assays and instrumentation for screening ion-channel targets” Drug Discov Today 4(9): 431-439).
24 hours before the assay on VIPR, CHO cells endogenously expressing a NaV1.2 type voltage-gated NaV are seeded in 96-well poly-lysine coated plates at 60,000 cells per well. […] The cells are then incubated for 20-30 minutes. • 7) Once the incubation is complete, the cells are ready to be assayed on VIPR® with a sodium addback protocol. […]
Control responses are obtained by performing assays in the presence of a compound with the desired properties (positive control), such as tetracaine, and in the absence of pharmacological agents (negative control). Responses to the negative (N) and positive (P) controls are calculated as above. […]

T1 sequence (Q9Y5Y9 whole entry, looked up): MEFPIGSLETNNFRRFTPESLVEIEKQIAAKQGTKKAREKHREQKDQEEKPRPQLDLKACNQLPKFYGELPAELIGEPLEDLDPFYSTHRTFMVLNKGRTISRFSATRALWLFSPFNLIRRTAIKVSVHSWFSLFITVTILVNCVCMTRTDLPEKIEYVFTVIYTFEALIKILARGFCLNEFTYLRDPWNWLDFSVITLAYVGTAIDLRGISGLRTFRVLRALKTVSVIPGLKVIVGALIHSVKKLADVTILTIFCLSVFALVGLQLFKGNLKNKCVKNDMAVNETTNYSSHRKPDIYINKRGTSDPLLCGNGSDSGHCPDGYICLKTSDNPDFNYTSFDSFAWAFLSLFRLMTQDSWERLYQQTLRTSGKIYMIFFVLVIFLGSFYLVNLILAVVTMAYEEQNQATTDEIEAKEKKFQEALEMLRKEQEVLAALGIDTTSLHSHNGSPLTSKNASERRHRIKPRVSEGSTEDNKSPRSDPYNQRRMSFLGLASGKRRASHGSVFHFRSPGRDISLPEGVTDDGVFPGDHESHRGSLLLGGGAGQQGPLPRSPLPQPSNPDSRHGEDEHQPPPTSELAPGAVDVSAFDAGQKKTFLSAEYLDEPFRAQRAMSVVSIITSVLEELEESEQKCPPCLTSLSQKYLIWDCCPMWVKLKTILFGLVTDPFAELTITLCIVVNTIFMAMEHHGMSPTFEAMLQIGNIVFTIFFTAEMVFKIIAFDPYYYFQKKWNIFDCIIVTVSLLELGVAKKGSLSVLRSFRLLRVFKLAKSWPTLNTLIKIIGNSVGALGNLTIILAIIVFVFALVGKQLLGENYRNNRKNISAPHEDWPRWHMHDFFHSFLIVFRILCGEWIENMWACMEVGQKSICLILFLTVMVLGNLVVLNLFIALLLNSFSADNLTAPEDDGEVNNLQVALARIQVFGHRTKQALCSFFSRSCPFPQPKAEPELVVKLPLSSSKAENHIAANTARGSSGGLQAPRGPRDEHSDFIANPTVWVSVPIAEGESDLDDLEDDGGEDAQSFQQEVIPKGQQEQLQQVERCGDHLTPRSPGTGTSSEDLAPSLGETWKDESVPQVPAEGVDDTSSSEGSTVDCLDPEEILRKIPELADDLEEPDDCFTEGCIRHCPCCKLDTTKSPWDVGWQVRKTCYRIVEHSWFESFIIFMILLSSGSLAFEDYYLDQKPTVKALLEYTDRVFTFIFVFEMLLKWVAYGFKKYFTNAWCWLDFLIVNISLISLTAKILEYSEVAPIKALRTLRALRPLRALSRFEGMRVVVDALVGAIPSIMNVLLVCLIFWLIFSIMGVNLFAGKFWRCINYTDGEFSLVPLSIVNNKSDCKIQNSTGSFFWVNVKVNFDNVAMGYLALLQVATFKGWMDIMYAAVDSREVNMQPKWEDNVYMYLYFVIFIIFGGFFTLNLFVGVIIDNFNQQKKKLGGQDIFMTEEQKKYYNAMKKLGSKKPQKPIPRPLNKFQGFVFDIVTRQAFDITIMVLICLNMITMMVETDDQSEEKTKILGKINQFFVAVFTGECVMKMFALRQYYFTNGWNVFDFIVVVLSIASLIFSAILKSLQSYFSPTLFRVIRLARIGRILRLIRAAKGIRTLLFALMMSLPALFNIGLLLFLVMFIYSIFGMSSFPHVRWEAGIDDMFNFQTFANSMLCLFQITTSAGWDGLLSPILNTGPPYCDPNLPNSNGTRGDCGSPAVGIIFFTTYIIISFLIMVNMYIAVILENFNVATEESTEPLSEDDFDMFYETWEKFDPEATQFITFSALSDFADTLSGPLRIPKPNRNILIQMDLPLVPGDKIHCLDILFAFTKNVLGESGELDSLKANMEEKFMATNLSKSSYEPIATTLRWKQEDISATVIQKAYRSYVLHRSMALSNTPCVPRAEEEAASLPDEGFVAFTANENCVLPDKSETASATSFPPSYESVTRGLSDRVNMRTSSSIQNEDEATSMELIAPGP

| Structure (SMILES) | IC50 [3] [µM] | also measured |
| --- | --- | --- |
| NC1=N[C@H](O)[C@H]2[C@H]3O[C@]4(O)O[C@@H]([C@@H](O)[C@@]2(N1)[C@@H]4O)[C@]3(O)CO [TTX, tetrodotoxin] | – | IC50 [1]: > 50 µM |
| NCC1(CC(=O)O)CCCCC1 [Gabapentin] | – | share of patients in which it works [2]: 60% |
| CC(C)CC(O)C(=O)N1CCN(c2cccc(-c3ccccc3O)c2)CC1 (centres unmarked) [Compound 1, 2-hydroxy-1-[4-[3-(2-hydroxyphenyl)phenyl]piperazin-1-yl]-4-methyl-pentan-1-one] | > 15 | – |
| CC(C)COC(=O)N1CCN(c2cccc(-c3ccccc3O)c2)CC1 [Compound 3, 4-[3-(2-hydroxyphenyl)phenyl]piperazine-1-carboxylic acid isobutyl ester] | > 15 | – |
| CC(C)C[C@@H](O)C(=O)N1CCN(c2cccc(-c3ccccc3C(F)F)c2)CC1 [Compound 2, 1-[4-[3-[2-(difluoromethyl)phenyl]phenyl]piperazin-1-yl]-2-hydroxy-4-methyl-pentan-1-one] | < 10 | – |

From patent US7705002B2, “Biaryls useful as modulators of ion channels” (Vertex Pharmaceuticals Incorporated, priority 2005, dated 2010)
